Reference: ChEMBL document CHEMBL1140940, “Pyrido[2,3-d]pyrimidin-5-ones: a novel class of antiinflammatory macrophage colony-stimulating factor-1 receptor inhibitors” (J Med Chem, 2009)
Calls of active or inactive are those of the source. The rule behind the calls is not given here.

How the values were obtained:
Rattus norvegicus [1] = test: Inhibition of ankle swelling in Freund's complete adjuvant-induced Lewis rat arthritis model at […], po twice daily administered on day 8 post adjuvant challenge measured on day 21 post adjuvant challenge relative to control; type: functional; settings: dose 0.33 mg/kg
Rattus norvegicus [2] = test: Reversal of ankle swelling in streptococcal cell wall-induced Lewis rat chronic arthritis model at 3 mg/kg, po twice daily administered on day 19 post streptococcal cell wall challenge; type: functional, organism-based; design: dose 3 mg/kg
[3] = Oral bioavailability in mouse at 10 mg/kg; type: ADME, organism-based; settings: in vivo
[4] = Oral bioavailability in dog at 10 mg/kg; type: ADME, organism-based, Canis lupus familiaris; settings: in vivo
[5] = Metabolic stability in rat liver microsomes after 10 mins; type: ADME, Microsome; settings: read-out: Stability
[6] = Oral bioavailability in monkey at 10 mg/kg; type: ADME, organism-based, Macaca mulatta; settings: rhesus monkey, in vivo
[7] = Oral bioavailability in Sprague-Dawley rat at 10 mg/kg; type: ADME, organism-based; settings: in vivo
[8] = Cmax in mouse at 10 mg/kg, po; type: ADME, organism-based; design: dose 10 mg/kg, route oral; settings: in vivo
[9] = biological target: T1, Receptor-type tyrosine-protein kinase FLT3 (Homo sapiens, UniProt P36888); test: Inhibition of FLT3 by fluorescence polarization competition immunoassay
T1 sequence (P36888 whole entry): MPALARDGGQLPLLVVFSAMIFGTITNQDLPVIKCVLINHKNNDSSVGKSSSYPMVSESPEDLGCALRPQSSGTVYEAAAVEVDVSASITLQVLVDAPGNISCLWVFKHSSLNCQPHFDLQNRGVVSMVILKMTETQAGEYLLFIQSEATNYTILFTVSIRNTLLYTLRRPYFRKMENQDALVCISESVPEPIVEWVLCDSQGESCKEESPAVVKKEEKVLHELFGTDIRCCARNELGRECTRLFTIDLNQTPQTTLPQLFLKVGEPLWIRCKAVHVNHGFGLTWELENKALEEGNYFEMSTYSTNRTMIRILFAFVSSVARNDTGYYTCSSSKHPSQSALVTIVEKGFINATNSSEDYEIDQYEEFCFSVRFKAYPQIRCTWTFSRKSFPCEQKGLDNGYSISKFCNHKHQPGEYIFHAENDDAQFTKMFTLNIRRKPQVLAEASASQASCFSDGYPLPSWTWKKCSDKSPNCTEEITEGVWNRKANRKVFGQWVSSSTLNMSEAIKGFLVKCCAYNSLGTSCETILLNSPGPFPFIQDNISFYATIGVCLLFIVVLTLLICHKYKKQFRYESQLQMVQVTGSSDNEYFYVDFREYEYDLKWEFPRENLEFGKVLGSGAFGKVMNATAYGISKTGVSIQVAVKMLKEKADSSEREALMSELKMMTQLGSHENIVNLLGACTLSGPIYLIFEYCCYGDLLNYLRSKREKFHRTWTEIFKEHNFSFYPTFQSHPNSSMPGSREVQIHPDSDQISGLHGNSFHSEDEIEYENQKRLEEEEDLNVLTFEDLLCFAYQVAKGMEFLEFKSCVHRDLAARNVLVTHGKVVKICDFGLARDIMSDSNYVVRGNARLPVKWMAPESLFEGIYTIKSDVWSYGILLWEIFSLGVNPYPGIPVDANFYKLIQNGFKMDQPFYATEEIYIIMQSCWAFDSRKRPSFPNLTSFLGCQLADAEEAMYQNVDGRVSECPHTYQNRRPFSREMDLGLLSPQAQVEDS

[10] = Plasma concentration CSF1-induced B6C3F1 mouse at 3 mg/kg, po after 6 hrs; type: ADME, organism-based; design: dose 3 mg/kg, route oral
[11] = Clearance in dog at 2 mg/kg, iv; type: ADME, organism-based, Canis lupus familiaris; design: dose 2 mg/kg, route intravenous; settings: in vivo
[12] = Volume of distribution at steady state in mouse at 2 mg/kg, iv; type: ADME, organism-based; design: dose 2 mg/kg, route intravenous; settings: in vivo, read-out: Vdss
Rattus norvegicus [13] = test: Inhibition of ankle swelling in Freund's complete adjuvant-induced Lewis rat arthritis model at 1 mg/kg, po twice daily administered on day 8 post adjuvant challenge measured on day 21 post adjuvant challenge relative to control; type: functional
[14] = Half life in Sprague-Dawley rat at 2 mg/kg, iv; type: ADME, organism-based; design: dose 2 mg/kg, route intravenous; settings: in vivo
[15] = Cmax in monkey at 10 mg/kg, po; type: ADME, organism-based, Macaca mulatta; design: dose 10 mg/kg, route oral; settings: rhesus monkey, in vivo
[16] = Half life in dog at 2 mg/kg, iv; type: ADME, organism-based, Canis lupus familiaris; design: dose 2 mg/kg, route intravenous; settings: in vivo
[17] = Half life in mouse at 2 mg/kg, iv; type: ADME, organism-based; design: dose 2 mg/kg, route intravenous; settings: in vivo
[18] = Cmax in Sprague-Dawley rat at 10 mg/kg, po; type: ADME, organism-based; design: dose 10 mg/kg, route oral; settings: in vivo

bioavailability [3]: 51%
bioavailability [4]: 33%
remaining at 10 min [5]: 96%
bioavailability [6]: 16.7%
bioavailability [7]: 100%
Cmax [8]: 1600 nM
IC50 [9]: 6 nM
concentration at 6 h [10]: 290 nM
clearance [11]: 30 mL/min/kg
Vd [12]: 3.6 L/kg
half-life [14]: 4.6 h
Cmax [15]: 60 nM
half-life [16]: 9.3 h
half-life [17]: 1.8 h
Cmax [18]: 1600 nM
SMILES: CONC(=O)c1cn(-c2ccc3c(c2)CCC3)c2nc(Nc3ccc(C4CCN(C)CC4)cc3)ncc2c1=O
inhibition in vivo at […] (Rattus norvegicus [1]): 7%
Activity (Rattus norvegicus [2]): Active
inhibition in vivo at 1 mg/kg (Rattus norvegicus [13]): 2%
